Experiments:
SQ20B cells [1] = experiment: Matrigel invasion assay; type: cell-based, human; settings: for invasion of SQ20B cells, agent alone: 48 h, 1 g/ml galectin-1, 1 μg/ml semaphorin-3A, 10 μM UO126, 3 μM OTX-008
Procedure: (§1) FIG. 5. Modulation of the galectin-1/semaphorin-3A/neuropilin system in SQ20B cells. A—Effects of galectin-1 (Gall), semaphorin-3A (Sema3A), lactose, with or without four different concentrations of OTX-008 on SQ20B growth at day 6. Embedded figure: Proliferation assay of SQ20B and SQ-shGAL1. B—In vitro matrigel invasion assay of SQ20B exposed to […] galectin-1, 1 μg/ml semaphorin-3A, 200 ng/ml lactose or 10 μM UO126 with or without 3 μM OTX-008. Embedded figure: In vitro matrigel invasion assay of SQ20B and SQ-shGAL1. Invasion was quantified after 48 h by counting the average number of invaded cells.
8 μm membranes were coated with Matrigel (50 μg). The inserts were placed within a 24-well chamber containing 0.6 ml of RPMI 1640 medium with 20% fetal bovine serum as chemoattractant. 10^5 cells were seeded into the inserts suspended in 0.3 ml of serum-free RPMI. After incubation for 48 h at 37° C., the upper surface of the filter was scraped to remove non-invasive cells. Invasive cells were fixed and stained with a Diff Quik detection Kit (Dade Behring, Paris, France). For quantification, the average number of invading cells per field was assessed by counting 9 random fields under a light microscope (400×).
(§2) Galectin-1 may form extracellular lattices counteracting the inhibitory properties of semaphorin-3A on neuropilin-1, eventually leading to the modulation of the vascular endothelial growth factor (VEGFR) and platelet derived growth factor (PDGFR) receptors, fibronectin, and laminin activity SQ20B cells expressed significant mRNA and protein levels of semaphorin-3A and neuropilin-1, PDGFRa&(, VEGF A-D, and VEGFR1-3 (Supplementary FIG. 2A). Thus, SQ20B cells were selected to evaluate the effects of OTX-008 on galectin-1/semaphorin-3A interactions. No difference between SQ20B cells growing in plastic or fibronectin- and laminin-coated plates. […] Galectin-1 and semaphorin-3A induced invasion was inhibited by OTX-008 mimicking the effects of lactose in this model.

cdc2 (tyrosine 15) = experiment: Western blot of phosphorylated cdc2 in SQ20B; type: cell-based, human; settings: pretreated 2 h with UO126 then OTX-008 72 hours
Procedure: Cells were lysed in buffer containing 50 mM HEPES (pH 7.6), 150 mM NaCl, 1% Triton X-100, 2 mM sodium vanadate, 100 mM NaF, and 0.4 mg/ml phenylmethylsulfonyl fluoride. Equal amounts of protein (30 μg/lane) were subjected to SDS-PAGE and transferred to nitrocellulose membranes. Membranes were blocked with 5% milk in 0.05% Tween 20/phosphate-buffered saline and then incubated with the primary antibody overnight. Membranes were then washed and incubated with the secondary antibody conjugated to horseradish peroxidase. Bands were visualized by using the enhanced chemiluminescence Western blotting detection system. Densitometric analysis was performed under conditions that yielded a linear response. The following antibodies were used: anti-p-cdc2 (tyr15), anti-p-wee1 (ser642), anti-p-p44/42 MAPK (thr202/tyr204), anti-p44/42, anti-p-AKT (ser473), anti-AKT, anti-p-S6 (ser235/236) (Cell Signaling, Saint Quentin Yvelines, France), anti-p-PKCα (ser657) (BD Biosciences, Le-Pont-de-Claix, France) and anti-galectin-1 (Abcam, Cambridge, Mass., USA). All antibodies were used at a 1:1000 dilution.
To study the mechanism of OTX-008-induced inhibition of cell proliferation, the effect of OTX-008 on cell cycle in SQ20B cells was examined (FIG. 5B). […] Activation of cdc2 (cdk1) by de-phosphorylation of tyrosine 15 is required for G2/M transition. […]

galectin-1 = target: T1, galectin-1 (Homo sapiens, UniProt P09382); experiment: Western blot of galectin-1 in SQ20B cells; type: cell-based; settings: Bortezomib 10 nM with 3 μM OTX-008, 48 h
T1 construct: Western Blot of galectin-1 on SQ20B cells treated with 3 μM OTX-008 for 24 h, 48 h and 72 h; endogenous in cells; host or cells: SQ20B (ATCC)
T1 sequence (P09382 whole entry): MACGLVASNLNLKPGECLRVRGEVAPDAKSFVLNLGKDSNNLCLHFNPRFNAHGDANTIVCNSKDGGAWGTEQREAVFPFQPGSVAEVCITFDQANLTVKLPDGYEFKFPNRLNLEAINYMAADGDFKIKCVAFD
Procedure: FIG. 3. Effects of OTX-008 on galectin-1 expression and localization. A—Western Blot of galectin-1 on SQ20B cells treated with 3 μM OTX-008 for 24 h, 48 h and 72 h. B and C—Immunofluorescence of galectin-1 on SQ20B cells treated with 3 μM OTX-008 for 24 and 48 h. B—OTX-008 treatment decreases galectin-1 immunostaining in SQ20B cells. C—Galectin-1 translocates into the nucleus after OTX-008 exposure. D—Western Blot of p-AKTser473, AKT, p-S6, p-ERK1/2, ERK and p-PKCα in SQ20B cells treated with 3 μM OTX-008 for 10 min, 1 h, 2 h, 5 h and 24 h.
FIG. 4. OTX-008-induced galectin-1 oxydation and degradation by the proteosome system A—Western Blot of galectin-1 on SQ20B cells treated 48 h with 10 μM N-acetylcysteine (NAC), 55 μM β-mercaptoethanol (βME), 1 mM Tempol and 10 μM co-enzyme Q10 (Q10) with or without 3 μM OTX-008. B—Western Blot of galectin-1 on SQ20B cells treated 48 h with 3 μM OTX-008, pretreated 2 h with proteasome inhibitor Bortezomib (10 nM) and then treated 48 h with 3 μM OTX-008 (BTZ—OTX-008) or treated 48 h with 10 nM Bortezomib+3 μM OTX-008 (BTZ+OTX-008).
Cells were lysed in buffer containing 50 mM HEPES (pH 7.6), 150 mM NaCl, 1% Triton X-100, 2 mM sodium vanadate, 100 mM NaF, and 0.4 mg/ml phenylmethylsulfonyl fluoride. Equal amounts of protein (30 μg/lane) were subjected to SDS-PAGE and transferred to nitrocellulose membranes. […]

SQ20B cells [2] = experiment: In vitro growth inhibition assay; type: cell-based, human; settings: growth at day 6
Procedure: as §1
For proliferation assay, cells were seeded in 96-well tissue culture plates at a density of 1.5×10^3 cells/well. MTT assay was conducted daily to determine the number of viable cells in untreated control and treated group. Growth inhibition curves were plotted as a percentage of cells for each experimental condition.
as §2

[3] = tested on: panel of human cancer cell lines; experiment: MTT cell cytotoxicity assay, cell line panel; type: cell-based; settings: cultured cancer cells
Procedure: Cell survival was determined using the MTT assay (3-[4,5-dimethylthiazol-2-yl]-2,5-diphenyltetrazolium bromide; Sigma, Saint-Quentin Fallavier, France). The conversion of yellow water-soluble tetrazolium MTT into purple insoluble formazan is catalyzed by mitochondrial dehydrogenases and used to estimate the number of viable cells. In brief, cells were seeded in 96-well tissue culture plates at a density of 2×10^3 cells/well. After 72 h drug exposure and 48 h wash-out, cells were incubated with 0.4 mg/ml MTT for 4 hours at 37° C. After incubation, the supernatant was discarded, insoluble formazan precipitates were dissolved in 0.1 ml of DMSO and the absorbance was measured at 560 nm by use of a microplate reader (Thermo, France). […] IC50's were determined as the halves of maximal inhibitory drug concentration for each cell line.
The antiproliferative effects of OTX-008 and anginex were assessed using MTT assay in a panel of human cancer cell lines of human origins expressing various levels of Lgals-1 mRNA and galectin-1 protein expressions (Supplementary Table 1). […] No correlation between mRNA expressions of galectin-2, galectin-3, and galectin-8 as well as semaphorin-3A, semaphorin-3B, neuropilin-1, VEGFR1-3, VEGFA-D, and PDGFRa&P3 and sensitivity to OTX-008 were detected in the panel.

B16 melanoma = settings: syngeneic mouse B16 melanoma model; cited from earlier work
[4] = tested on: human ovarian carcinoma MA148 xenografts; settings: cited from earlier work

Molecule | invasion of SQ20B cells, agent alone (SQ20B cells [1]) | SQ20B cell proliferation, exogenous agent alone (SQ20B cells [2]) | further results
N#CC(=C(/N)Sc1ccccc1N)/C(C#N)=C(/N)Sc1ccccc1N [UO126, reference compound] | neither impact cellular invasion alone | – | OTX-008-mediated cdc2 phosphorylation after UO126 pretreatment (cdc2 (tyrosine 15)): inhibited the increase of cdc2 phosphorylation
CC(C)C[C@H](NC(=O)[C@H](Cc1ccccc1)NC(=O)c1cnccn1)B(O)O [bortezomib, reference compound] | – | – | effect of proteasome inhibition on OTX-008-induced galectin-1 decrease (galectin-1): counteracts the inhibitory effects of OTX-008 on galectin-1 expression
OC[C@H]1O[C@@H](O[C@H]2[C@H](O)[C@@H](O)C(O)O[C@@H]2CO)[C@H](O)[C@@H](O)[C@H]1O (stereo partly drawn) [lactose, reference compound] | – | significant inhibition of cellular proliferation | invasion, lactose combined with OTX-008 (SQ20B cells [1]; SQ20B, 200 ng/ml lactose with 3 μM OTX-008): prevents the inhibition of invasion induced by OTX-008
anginex | – | – | antiproliferative effects (MTT) [3]: limited effects; antitumor activity (B16 melanoma): antitumor activity; antitumor activity [4]: antitumor activity
galectin-1: Recombinant galectin-1 purchased from R&D Systems | enhance invasion | had not effects | –
semaphorin-3A: Recombinant semaphorin-3A purchased from R&D Systems (protein, UniProt Q14563 21-771, looked up) Semaphorin-3A: NYQNGKNNVPRLKLSYKEMLESNNVITFNGLANSSSYHTFLLDEERSRLYVGAKDHIFSFDLVNIKDFQKIVWPVSYTRRDECKWAGKDILKECANFIKVLKAYNQTHLYACGTGAFHPICTYIEIGHHPEDNIFKLENSHFENGRGKSPYDPKLLTASLLIDGELYSGTAADFMGRDFAIFRTLGHHHPIRTEQHDSRWLNDPKFISAHLISESDNPEDDKVYFFFRENAIDGEHSGKATHARIGQICKNDFGGHRSLVNKWTTFLKARLICSVPGPNGIDTHFDELQDVFLMNFKDPKNPVVYGVFTTSSNIFKGSAVCMYSMSDVRRVFLGPYAHRDGPNYQWVPYQGRVPYPRPGTCPSKTFGGFDSTKDLPDDVITFARSHPAMYNPVFPMNNRPIVIKTDVNYQFTQIVVDRVDAEDGQYDVMFIGTDVGTVLKVVSIPKETWYDLEEVLLEEMTVFREPTAISAMELSTKQQQLYIGSTAGVAQLPLHRCDIYGKACAECCLARDPYCAWDGSACSRYFPTAKRRTRRQDIRNGDPLTHCSDLHHDNHHGHSPEERIIYGVENSSTFLECSPKSQRALVYWQFQRRNEERKEEIRVDDHIIRTDQGLLLRSLQQKDSGNYLCHAVEHGFIQTLLKVTLEVIDTEHLEELLHKDDDGDGSKTKEMSNSMTPSQKVWYRDFMQLINHPNLNTMDEFCEQVWKRDRKQRRQRPGHTPGNSNKWKHLQENKKGRNRRTHEFERAPRSV | enhance invasion | concentration-dependent inhibition of cellular proliferation | –

— US20140243415A1, “COMPOUNDS INHIBITING GALECTIN-1 EXPRESSION, CANCER CELL PROLIFERATION, INVASION, AND TUMORIGENESIS” (ONCOETHIX SA, priority 2011, published 2014)
